Reference: article PMC10986598, “Investigating inhibitors of 1-deoxy-D-xylulose 5-phosphate synthase in a mouse model of UTI” (Microbiology Spectrum, 2024)
≈ marks a conversion by molar mass, not a printed value. Entries after “also recorded” stand apart in the source; their conditions may differ. Read-outs that look alike come from different tables or passages of the source.

Assays:
UPEC (CFT073) [1] = system: UPEC (CFT073); set-up: method as in PMID 37107054; conditions: cited from earlier work
FVB mice = experiment: Acute toxicity dose-escalation study in mice; type: in vivo, mouse; conditions: n = 2
Experimental: Six-week-old female FVB mice were administered BAP by intraperitoneal (IP) injection at doses of 1, 3, 10, 30, 100, and 300 mg/kg. The mice were observed every hour for 6 h post administration for signs of overt toxicity or mortality, or for symptoms related to pain/distress (ruffled fur, discharge from the eyes, dehydration, hunched posture, convulsions, lethargy, reluctance to move, uncoordinated movements, hypothermia, pale ears/feet, labored respiration, and/or cyanosis). Following initial observations, 6 h post administration, mice were then observed daily for signs of toxicity for 18 days. Mice that were administered the highest dose of BAP tested (300 mg/kg) were weighed at days 0, 1, 2, 5, 6, 7, 13, and 18.

[2] = In vivo PK studies in CD-1 mice
Experimental: For pharmacokinetic analysis, both male (n = 2) and female (n = 2) CD1 mice were dosed with either BAP or pro-hpAP by intraperitoneal (IP) route or administration (100 mg/kg) and (30 mg/kg), respectively. Blood and tissue samples were collected at predetermined time points (0–6 h post-dose). Plasma was generated from blood by low-speed centrifugation (3,000 × g), and all samples were stored at −80°C until bioanalysis.
Non-compartmental-analysis module in WinNonlin was used to assess blood pharmacokinetic parameters including max concentrations (Cmax), time to Cmax (Tmax), area under the curve (AUC), area extrapolated to infinity (AUC0–∞), and terminal half-life (t1/2). In addition, the tissue penetration index was measured as the ratio of AUCtissue to AUCplasma.
To quantify BAP and pro-hpAP, methanol containing 0.5 µM losartan as an internal standard was added 5 µL/µL plasma or 5 µL/mg tissue in microcentrifuge tubes. Tissue was further homogenized using a Spex Geno/Grinder with stainless steel beads for 3 min at 1,500 RPM. Homogenates from untreated animals were spiked with the analytes from 100 to 0.01 nmol/g tissue by serial dilution to generate a standard curve. Plasma and tissue homogenates were then vortexed and centrifuged (16,000 × g for 5 min at 4°C) to precipitate proteins. Supernatants were transferred to a 96 well plate and 2 µL was injected on a Accela 1250 LC coupled to a Vantage triple quadrupole mass spectrometer (Thermo Fisher Scientific Inc., Waltham MA). Samples were separated on an Agilent EclipsePlus C18 RRHD (1.8 µm) 2.1 × 100 mm column with mobile phases consisting of water +0.1% formic acid (A), and acetonitrile + 0.1% formic acid (B). […] Samples were introduced to the source through heated ion spray with the capillary temperature setting at 350°C, spray voltage of 4 kV and S-Lens RF of 51. Nitrogen was used as the sheath and auxiliary gas with the settings of 50 and 1 arbitrary units, respectively. For BAP, the instrument was operated in negative ion mode scanning for transitions of 179.1 > 63.1, 79.1 (BAP) and 420.9 > 179.1, 127.0 (losartan) which were acquired with collision energies setting of 17; 55 and 25; 41 CE, respectively. For pro-hpAP, the instrument was operated in positive ion mode scanning for transitions of 346.2 to 86.1 and 143.2 (pro-hpAP) and 422.9 to 207.1 and 180.1 (losartan) which were acquired with collision energies setting of 29; 17 and 37; 22 CE, respectively. Peaks were quantified with Xcalibur software.

DXPS = system: DXPS; set-up: method as in PMID 23326631; conditions: over other ThDP-dependent enzymes; cited from earlier work
UPEC (CFT073) [3] = experiment: Antimicrobial susceptibility of UPEC (CFT073) grown in urine; type: cell-based, uropathogenic Escherichia coli
Experimental: Pooled human urine was filter-sterilized prior to use. Solid urine agar plates were prepared by supplementing cooled 1.5% (wt/vol) agar with filter-sterilized urine in a 4:1 ratio. OD600 measurements were performed on a Beckman DU800 UV/Visible spectrophotometer (Brea, CA, USA). MIC determination data were collected from bacteria in 96-well plates (Nunc Edge 96-Well, Non-Treated, Flat-Bottom Microplate) incubated and read on a Biotek Epoch 2 microplate reader. Uropathogenic E. coli strain CFT073 (ATCC: BAA-2503) was obtained from the lab of Rodney Welch ([58]). All microbial manipulation of pathogenic bacteria was conducted in a certified biosafety level 2 laboratory following all associated safety protocols. A hand-held tissue homogenizer (purchased from IKA, T10 basic S001, 3737001) was used to homogenize mouse bladders for bacterial enumeration.
UPEC (CFT073) cells from frozen glycerol stocks were streaked onto urine agar plates and grown for 48 h at 37°C. Three to five isolated colonies were inoculated into filter-sterilized urine supplemented with FeSO4 (20 µM), and the cultures were grown overnight with shaking at 37°C. The saturated cultures were subcultured (1:50) in fresh urine supplemented with FeSO4 (20 µM) and grown to exponential phase (OD600 ~ 0.25). Cultures at exponential phase were diluted 1:1,000 into fresh urine supplemented with FeSO4 (20 µM) to yield the experimental inoculum which was mixed 1:1 with urine containing pro-hpAP at 2 × the desired final concentration (0–10 µM). The final concentration of bacteria in each well was ~10^5 CFU/mL in a volume of 200 µL. Colony counts of the experimental inoculum were independently verified by dilution and enumeration on LB agar, grown for 16 h at 37°C, to confirm consistency between experiments. The 96-well plates were incubated at 37°C for 16 h with intermittent shaking. Fractional growth of cells treated with pro-hpAP was determined at 8 h relative to the no drug control. MIC determination was performed in biological triplicate.

[4] = Bladder, single 100 mg/kg IP dose of BAP
[5] = Brain, single 100 mg/kg IP dose of BAP
[6] = Kidney, single 100 mg/kg IP dose of BAP
[7] = Plasma, single 100 mg/kg IP dose of BAP

CCCCOP(=O)(O)C(C)=O [BAP, butyl acetylphosphonate]
MIC (growth suppressed >90%) (UPEC (CFT073) [1]; UPEC CFT073 in urine): 1250 µM (≈ 225 µg/mL) | reduction in UPEC growth (UPEC (CFT073) [1]; in urine, at 156 µM BAP): ~ 80% | body weight (FVB mice; single IP dose 300 mg/kg, weighed for 18 days, 300 mg/kg): weight was maintained throughout the observation period; also recorded: no symptoms of distress or change in weight | overt toxicity or altered behavior (FVB mice; single IP dose, escalating up to 300 mg/kg, observed 18 days): No overt toxicity or altered behavior was observed; also recorded: no symptoms of distress | AUC(0-t) [2, 4]: 1990 ± 110 µM·h | Cmax [2, 4]: 1840 ± 230 µM | Tmax [2, 4]: 4.8 min | AUC(0-t) [2, 5]: 12.5 ± 1.8 µM·h | Cmax [2, 5]: 16.2 ± 2.6 µM | AUC(0-t) [2, 6]: 136 ± 7 µM·h | Cmax [2, 6]: 298 ± 37 µM | Tmax [2, 6]: 4.8 min | AUC(0-t) [2, 7]: 233 ± 27 µM·h | Cmax [2, 7]: 650 ± 190 µM | Tmax [2, 7]: 4.8 min | AUC ([2]; bladder, BAP 100 mg/kg IP): 1,990 ± 110 nmol h/g | AUC ([2]; brain, BAP 100 mg/kg IP): 12.5 ± 1.8 nmol·h/g | AUC ([2]; kidney, BAP 100 mg/kg IP): 136 ± 7 nmol·h/g | AUC ([2]; plasma, BAP 100 mg/kg IP): 233 ± 27 nmol·h/mL | selectivity for DXPS (DXPS): selective for DXPS over other ThDP-dependent enzymes

C#CCCOP(=O)(O)C(=C)NC(=O)C(CC(C)C)NC(=O)CN (stereo not drawn) [pro-hpAP]
MIC (UPEC (CFT073) [3]; Escherichia coli, UPEC CFT073 in urine, read-out: MIC (growth suppressed >90%)): 5 µM (≈ 1.73 µg/mL) | reduction in fractional growth (UPEC (CFT073) [3]; UPEC CFT073 in urine, at 630 nM pro-hpAP, 8 h): > 70% | higher potency than BAP (MIC in urine) (UPEC (CFT073) [3]; UPEC in urine, relative to BAP): 250 fold | AUC ([2]; bladder, pro-hpAP 30 mg/kg IP, analyte = labelled substance (pro-hpAP or released hpAP)): 6.2 ± 1.3 nmol·h/g | Cmax ([2]; both sexes, CD1, mouse, Bladder, single 30 mg/kg IP dose of pro-hpAP, analyte = labelled substance): 24.3 ± 8.5 µM | AUC(0-t) ([2]; both sexes, CD1, mouse, Bladder, single 30 mg/kg IP dose of pro-hpAP, analyte = labelled substance, read-out: AUC0-t): 6.2 ± 1.3 µM·h | Tmax ([2]; both sexes, CD1, mouse, Bladder, single 30 mg/kg IP dose of pro-hpAP, analyte = labelled substance, read-out: Tmax): 4.8 min | Cmax ([2]; both sexes, CD1, mouse, Brain, single 30 mg/kg IP dose of pro-hpAP, analyte = labelled substance): 0.134 ± 0.036 µM | AUC(0-t) ([2]; both sexes, CD1, mouse, Brain, single 30 mg/kg IP dose of pro-hpAP, analyte = labelled substance, read-out: AUC0-t): 0.115 ± 0.014 µM·h | Tmax ([2]; both sexes, CD1, mouse, Brain, single 30 mg/kg IP dose of pro-hpAP, analyte = labelled substance, read-out: Tmax): 4.8 min | Cmax ([2]; both sexes, CD1, mouse, Kidney, single 30 mg/kg IP dose of pro-hpAP, analyte = labelled substance): 0.715 ± 0.09 µM | AUC(0-t) ([2]; both sexes, CD1, mouse, Kidney, single 30 mg/kg IP dose of pro-hpAP, analyte = labelled substance, read-out: AUC0-t): 0.516 ± 0.048 µM·h | Tmax ([2]; both sexes, CD1, mouse, Kidney, single 30 mg/kg IP dose of pro-hpAP, analyte = labelled substance, read-out: Tmax): 4.8 min | Cmax ([2]; both sexes, CD1, mouse, Plasma, single 30 mg/kg IP dose of pro-hpAP, analyte = labelled substance (pro-hpAP or released hpAP)): 20.2 ± 1.9 µM | AUC(0-t) ([2]; both sexes, CD1, mouse, Plasma, single 30 mg/kg IP dose of pro-hpAP, analyte = labelled substance, read-out: AUC0-t): 3.2 ± 0.21 µM·h | Tmax ([2]; both sexes, CD1, mouse, Plasma, single 30 mg/kg IP dose of pro-hpAP, analyte = labelled substance, read-out: Tmax): 4.8 min | AUC ([2]; both sexes, CD1, mouse, plasma, pro-hpAP 30 mg/kg IP, analyte = labelled substance, read-out: AUC): 3.2 ± 0.21 nmol·h/mL | AUC ([2]; brain, pro-hpAP 30 mg/kg IP, analyte = labelled substance): 0.115 ± 0.014 nmol·h/g | AUC ([2]; kidney, pro-hpAP 30 mg/kg IP, analyte = labelled substance): 0.516 ± 0.048 nmol·h/g
